Reference: PMC12491641 (Nature Communications, 2025)

Assays:
Type in all cases: binding
AtD14 (DWARF14) [1] = target: T1, AtD14 (DWARF14) (Arabidopsis thaliana, UniProt Q9SQR3); assay: intrinsic tryptophan fluorescence Kd
T1 sequence (Q9SQR3 2-266): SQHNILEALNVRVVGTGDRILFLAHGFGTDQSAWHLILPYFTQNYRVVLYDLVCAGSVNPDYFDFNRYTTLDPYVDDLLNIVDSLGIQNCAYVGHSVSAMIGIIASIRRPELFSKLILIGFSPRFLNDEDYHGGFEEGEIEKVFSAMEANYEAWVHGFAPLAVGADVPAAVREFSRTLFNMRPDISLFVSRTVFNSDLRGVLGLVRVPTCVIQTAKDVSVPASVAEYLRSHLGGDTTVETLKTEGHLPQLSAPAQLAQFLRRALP

OsD14 = target: T2, OsD14 (Oryza sativa, UniProt Q10QA5); assay: nanoDSF Tm increase
T2 sequence (Q10QA5 1-318): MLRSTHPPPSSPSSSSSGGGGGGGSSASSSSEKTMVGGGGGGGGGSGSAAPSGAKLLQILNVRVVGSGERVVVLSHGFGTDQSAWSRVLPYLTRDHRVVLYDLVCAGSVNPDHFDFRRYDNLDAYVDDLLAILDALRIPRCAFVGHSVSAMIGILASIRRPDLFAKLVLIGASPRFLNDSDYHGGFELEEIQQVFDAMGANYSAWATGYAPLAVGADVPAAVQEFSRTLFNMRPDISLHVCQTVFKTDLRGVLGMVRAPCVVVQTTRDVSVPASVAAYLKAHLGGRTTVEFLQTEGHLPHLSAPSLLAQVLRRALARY

AtD14 (DWARF14) [2] = target: T1, AtD14 (DWARF14); assay: co-crystal structure

Row | Kd (AtD14 (DWARF14) [1]) | Kd (AtD14 (DWARF14) [2]) | Compound | nanoDSF Tm increase; tryptophan fluorescence (OsD14)
1 | 990 nM |  | CC1=CC(O/C=C2/C(=O)OC3c4ccccc4CC23)OC1=O (racemic) [(±)-GR24] | 
2 |  | 1800 nM | CC(=O)/C=C/C=C(C)/C=C/C1=C(C)CC(O)CC1(C)C (stereo in doubt) [zaxinone] | tryptophan fluorescence assays confirmed the direct interaction between OsD14 and zaxinone
